Series [1] in a line: Cmax in patient plasma at 600 mg, iv or 600 mg, po administered every 12 hrs by HPLC. The note with it: human. Format: ADME, organism-based.
The nature of series [2]: AUC (24 hrs) in patient plasma at 600 mg, iv or 600 mg, po administered every 12 hrs by HPLC. Format: ADME, organism-based. The note with it: human.
The nature of series [3]: AUC (12 hrs) in liver transplant patient plasma at 600 mg, iv or 600 mg, po administered every 12 hrs by HPLC. The note with it: human. Format: ADME, organism-based.
Series [4] in a line: Drug excretion in healthy human urine assessed as unchanged compound at 600 mg, po. Format: ADME, tissue-based. The note with it: read-out: Activity.
For the next series, the system named is Homo sapiens. The series is described as follows: Nonrenal clearance in healthy human at 600 mg, po. Format: ADME, organism-based. The note with it: in vivo.

One may read the Cmax as the highest concentration seen after dosing. The AUC is the area under the concentration-time curve, a measure of exposure. Higher therefore signals high exposure.

The molecule `CC(=O)NC[C@H]1CN(c2ccc(N3CCOCC3)c(F)c2)C(=O)O1` [LINEZOLID] returned a Cmax in series [1] of 14.7 µg/mL. The same molecule showed an AUC in series [2] of 196 µg·h/mL. This molecule also displayed an AUC at 12 h in series [3] of 413 µg·h/mL. Moreover, the dose excreted in series [4] worked out at 30%. The “Dose non renally cleared” value in the series on Homo sapiens is 65%.

Values taken from ChEMBL document CHEMBL1671753, “Therapeutic drug monitoring of linezolid: a retrospective monocentric analysis” (Antimicrob Agents Chemother, 2010).
